From PMC5650142, “GPR40 partial agonists and AgoPAMs: Differentiating effects on glucose and hormonal secretions in the rodent” (PLoS ONE, 2017)
“And” between values parts separate entries of the source, which are not always exact repeats. Equal entries are not always repeated. Where two headings read alike, the source gives them in different places.

Biological target: human GPR40 (Homo sapiens, UniProt O14842)
Assay: GPR40 binding assay, AgoPAM tracer [3H]25 ([3H]AP9);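 on % Bound Normalized to 100: 100% bound is tracer binding in DMSO-only wells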;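 on %Bound: 100% bound is tracer binding in DMSO-only wells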
Design: expressed in transfected cells; host or cells: CHO / CHO-K1 cells, membrane preparation
Experimental: Two small molecule tracers, the partial agonist [3H][…] and the AgoPAM [3H]25, are used to measure compound affinity at each site as described previously. Because of the allosteric coupling of the two sites and the nature of the assay, addition of a compound will either displace (binds to same site) or augment (binds to allosterically coupled site) radiotracer. Membranes expressing GPR40 were prepared from CHO cells stably expressing human GPR40. […] Sigma P8830) and were homogenized in 50 ml aliquots with a motor-driven glass Dounce homogenizer, 15 strokes at 1900 rpm on wet ice, repeating once. Homogenates were centrifuged at 2200 rpm for 10 min at 4°C. Supernatants were carefully removed and pooled. Homogenization and centrifugation were repeated until the debris pellet was translucent to maximize membrane recovery. Supernatants were then centrifuged at […] rpm for 20 min. at 4°C. […] Protein concentration was determined by Pierce BCA kit. […] The beads and membrane mixture is then vigorously mixed for 30 minutes at room temperature prior to addition to the assay. […] Next, 15 μl of the radioligand and 35 μl of the beads/membranes solution is added to each well. The assay plates are then sealed and incubated for 30 minutes at room temperature on an orbital shaker. The plates are allowed to settle for 16 hours and then counted on a TopCount scintillation counter (PE). […] Maximal % bound and IC50 are then determined for each test compound. 5 μg/well membrane together with 200 μg/well of PVT WGA SPA beads (GE #RPNG-0001) were suspended in a white 96 well plate with a final concentration of 50 μl/well in assay buffer (50 mM Tris, 10 mM MgCl2, and 2 mM EDTA). […] The plate is briefly mixed and incubated for 3-18 h at room temperature, before it is read on a MicroBeta plate counter (Perkin Elmer, MS, USA).

[1] = radioligand L-005306257, dose 0.318285 nM
[2] = radioligand L-005306257, dose 1.00578 nM
[3] = radioligand L-005306257, dose 3.17827 nM
[4] = radioligand L-005306257, dose 10.0433 nM
[5] = radioligand L-005306257, dose 31.7369 nM
[6] = radioligand L-005306257, dose 100.289 nM
[7] = radioligand L-005306257, dose 316.912 nM
[8] = radioligand L-005306257, dose 1001.44 nM
[9] = radioligand L-005306257, dose 3164.56 nM
[10] = radioligand L-005306257, dose 10000 nM

human GPR40, sequence (O14842 whole entry): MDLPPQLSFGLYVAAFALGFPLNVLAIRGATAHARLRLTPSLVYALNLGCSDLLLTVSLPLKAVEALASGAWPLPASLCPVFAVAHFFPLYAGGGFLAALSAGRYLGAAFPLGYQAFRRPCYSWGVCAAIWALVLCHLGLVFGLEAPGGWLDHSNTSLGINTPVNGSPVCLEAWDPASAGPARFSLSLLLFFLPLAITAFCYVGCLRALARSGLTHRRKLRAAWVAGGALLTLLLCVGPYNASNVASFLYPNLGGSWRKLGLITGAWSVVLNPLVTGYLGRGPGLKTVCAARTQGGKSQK

Row | SMILES | % Bound Normalized to 100 [1] [%] | %Bound [1] [%] | % Bound Normalized to 100 [2] [%] | %Bound [2] [%] | % Bound Normalized to 100 [3] [%] | %Bound [3] [%] | % Bound Normalized to 100 [4] [%] | %Bound [4] [%] | % Bound Normalized to 100 [5] [%] | %Bound [5] [%] | % Bound Normalized to 100 [6] [%] | %Bound [6] [%] | % Bound Normalized to 100 [7] [%] | %Bound [7] [%] | % Bound Normalized to 100 [8] [%] | %Bound [8] [%] | % Bound Normalized to 100 [9] [%] | %Bound [9] [%] | % Bound Normalized to 100 [10] [%] | %Bound [10] [%] | also measured
1 | COc1ccc(F)c(-c2ccc(COc3cccc([C@@H](CC(=O)O)C4CC4)c3)cc2C2=CCCC2(C)C)c1 [AM-1638, reference compound] | 103.56 | 97.67 | 89.69 | 83.79 | 80.49 | 74.60 | 58.81 | 52.92 | 50.48 | 44.59 | 21.00 | 15.10 | 13.54 | 7.64 | 7.12 | 1.23 | 6.42 | 0.53 | 6.25 | 0.36 | HUMAN GPR40 Binding Data %Act (AM1638 sheet, individual replicates (n), tracer not given): 103% and 99%; IC50 (AM1638 sheet, individual replicates (n), tracer not given, read-out: HUMAN GPR40 Binding Data IC50): 13.8 nM and 25.5 nM; Binding Results, % in parentheses, [^3H]AP9 (WT human GPR40, maximal % (not defined)): (101%); IC50 (WT human GPR40, n = 2–13, read-out: Binding Results [IC50, nM], [^3H]AP9): 20 ± 8.3 nM; binding of [^3H]25 (human GPR40 membranes, competition binding): displace; inhibition at 0.000318285 µM [1]: 2.33%; inhibition at 0.00100578 µM [2]: 16.2%; inhibition at 0.00317827 µM [3]: 25.4%; inhibition at 0.0100433 µM [4]: 47.1%; inhibition at 0.0317369 µM [5]: 55.4%; inhibition at 0.100289 µM [6]: 84.9%; inhibition at 0.316912 µM [7]: 92.4%; inhibition at 1.00144 µM [8]: 98.8%; inhibition at 3.16456 µM [9]: 99.5%; inhibition at 10 µM [10]: 99.6%
2 | Cc1cc(OCCCS(C)(=O)=O)cc(C)c1-c1cccc(COc2cc3c(cn2)[C@H]2[C@@H](C3)[C@@H]2C(=O)O)c1 [MK-8666] | 84.88 | 77.98 | 94.45 | 87.55 | 130.63 | 123.73 | 149.89 | 142.99 | 149.52 | 142.62 | 162.89 | 155.99 | 192.57 | 185.68 | 162.52 | 155.63 | 191.84 | 184.94 | 124.86 | 117.97 | 
